Test results: ChEMBL document CHEMBL1155409, “Ultrasmall particle of iron oxide--RGD peptidomimetic conjugate: synthesis and characterisation” (Bioorg Med Chem Lett, 2010)

Target: Integrin alpha-V/beta-3 (Homo sapiens)
Assay: Inhibition of human Integrin alphaVbeta3 isolated receptors assessed by standard competitive binding assay

| IC50 [nM] | Structure (SMILES) |
| --- | --- |
| 0.7 | NCCOCCOCCOCCOCCOCCOCC(=O)Nc1cc(C[C@H](NS(=O)(=O)c2cccc(C(F)(F)F)c2)C(=O)O)ccc1OCCCc1ccc2c(n1)NCCC2 |
| 0.3 | COCCOCCOCCOCC(=O)Nc1cc(C[C@H](NS(=O)(=O)c2cccc(C(F)(F)F)c2)C(=O)O)ccc1OCCCc1ccc2c(n1)NCCC2 |
| 0.1 | Nc1cc(C[C@H](NS(=O)(=O)c2cccc(C(F)(F)F)c2)C(=O)O)ccc1OCCCc1ccc2c(n1)NCCC2 |
